Measured values from US20090007283A1, “Transgenic Rodents Selectively Expressing Human B1 Bradykinin Receptor Protein” (priority 2003, published 2009).

Legend:
human B1 receptor = biological target: T1, human B1 receptor (Homo sapiens, UniProt P46663); experiment: Functional assay: DAK-induced contraction of fundus and ileum tissue from line 13 mice homozygous for the human B1 receptor gene
T1 construct: from tissue; host or cells: stomach fundus and ileum of line 13 mice homozygous for the human B1 receptor knock-in (targeting vector pB1R-KI2)
T1 sequence (P46663 1-353): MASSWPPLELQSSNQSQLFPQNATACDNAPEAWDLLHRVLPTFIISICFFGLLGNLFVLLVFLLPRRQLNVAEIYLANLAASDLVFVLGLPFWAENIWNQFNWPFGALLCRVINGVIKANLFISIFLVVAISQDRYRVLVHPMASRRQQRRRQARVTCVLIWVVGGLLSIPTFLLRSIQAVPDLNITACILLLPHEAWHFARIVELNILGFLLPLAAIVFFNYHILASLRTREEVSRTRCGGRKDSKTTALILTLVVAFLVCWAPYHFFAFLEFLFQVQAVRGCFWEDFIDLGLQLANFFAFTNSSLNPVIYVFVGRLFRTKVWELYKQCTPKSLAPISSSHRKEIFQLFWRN
Procedure: A functional assay was carried out twice on homozygous human b1 mouse fundus and ileum tissue to evaluate its B1 receptor activity in line 13, a mouse line homozygous for replacement of the mouse B1 gene with the human B1 receptor gene. A selective human B1 receptor compound (Compound #1) was tested for antagonistic activity against the receptor from these knock-in mice. Specifically, two homozygous mice were euthanized with CO2. Their stomach and ileum were removed and the fundic portion was divided in half by cutting an incision along the greater curvature. A medial longitudinal strip about 1 mm×0.6 cm was obtained by making cut along the midline incision. Two fundic strips were obtained from each stomach. The ileum was cut about 4 cm from the cecum. Each ileum is divided into two pieces and whole muscle was used. […] Each piece of ileum was tied one end to a glass rod with silk 4-0 and the other end to the Statham—Gould force transducer. One gram tension was applied to each tissue and contraction was recorded by a Hewlett-Packard 7758 recorder. All tissues receive 50 mM KCl at the end of 1 hr equilibrium for maximal response. The tissues are washed every 20 min for one hour. 30 nM of Compound #1 was added to two treated ileum or two treated fundus tissues and incubated for one hour. 0.1 μM M422 and 1 μM thiorphan are added to the bath 30 min before DAK dosing. A cumulative dose-response of DAK (10-^10M to 3×10^−5M) is carried out after pre-incubation.
DAK is diluted in Krebs solution. Full log dilution is made by adding 25 μl in […]. Compound #1 is diluted in DMSO.

[1] = biological target: T2, human B1 bradykinin receptor (human) (UniProt P46663); experiment: cell-based or functional assay
T2 sequence (looked up): T1 sequence (P46663 1-353)

hb1 = biological target: T3, hb1 (Homo sapiens, UniProt P46663); experiment: binding data, hb1; settings: human B1 receptor; kind of constant not given
T3 sequence (P46663 1-353): T1 sequence (P46663 1-353)

rat b1 = biological target: T4, rat b1 (Rattus norvegicus, UniProt P97583); experiment: binding data, rat b1; settings: rat B1 receptor; kind of constant not given
T4 sequence (P97583 1-337): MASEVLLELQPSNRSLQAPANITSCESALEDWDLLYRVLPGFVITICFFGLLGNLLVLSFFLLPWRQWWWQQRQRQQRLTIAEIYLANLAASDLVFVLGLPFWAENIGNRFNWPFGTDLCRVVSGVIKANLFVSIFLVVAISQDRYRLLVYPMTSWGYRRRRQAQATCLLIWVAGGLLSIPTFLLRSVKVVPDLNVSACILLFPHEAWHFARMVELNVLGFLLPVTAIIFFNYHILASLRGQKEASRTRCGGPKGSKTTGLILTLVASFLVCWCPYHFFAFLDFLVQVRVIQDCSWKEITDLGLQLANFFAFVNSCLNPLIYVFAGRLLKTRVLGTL

B1 receptor = biological target: T5, B1 receptor (Mus musculus, UniProt Q61125); experiment: DAK response of the stomach fundus in wild type mice
T5 construct: from tissue; host or cells: stomach fundus of wild type mice
T5 sequence (Q61125 1-334): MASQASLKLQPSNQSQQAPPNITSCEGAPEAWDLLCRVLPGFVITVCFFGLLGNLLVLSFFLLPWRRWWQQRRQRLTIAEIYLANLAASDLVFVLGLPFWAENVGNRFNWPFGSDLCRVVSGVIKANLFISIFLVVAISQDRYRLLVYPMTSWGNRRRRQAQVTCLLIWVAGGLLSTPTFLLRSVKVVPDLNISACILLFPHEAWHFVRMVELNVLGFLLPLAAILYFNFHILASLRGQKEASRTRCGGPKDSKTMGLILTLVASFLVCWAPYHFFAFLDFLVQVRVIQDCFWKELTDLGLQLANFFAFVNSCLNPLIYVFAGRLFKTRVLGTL
Source text: This phenotype is detailed herein via a functional assay showing the effect of a selective antagonist of the human B1 receptor. […] Therefore, the transgenic mice of the present invention, including but not limited to the humanized mice exemplified herein, will be useful to evaluate the efficacy of human selective compounds in both in vitro and in vivo assays. The addition of exogenous agonist, or the natural release of endogenous agonist resulting from a stimulus, may activate the human receptor. The ability of human selective compounds to antagonize the activation of the receptor will permit a determination of the efficacy of the compound in these animal models. To this end, the humanized B1 transgenic models as described herein will be useful to screen any potential modulator of receptor activity (e.g., antagonists or agonists), including but not necessarily limited to peptides, proteins, or non-proteinaceous organic or inorganic molecules. The transgenic animals of the present invention provide for improved models to evaluate the efficacy of human selective compounds in both in non-human animal models, such as rodents humanized for expression of the B1 receptor. […] Even if successful, the properties of compounds selective for humans could not be assessed. […]

Molecule: des-Arg^10 kallidin [des-arg^10-kallidin, reference compound]
- DAK contractile response (human B1 receptor; Line #13 homozygous mice, compared with wild type): full DAK contractile responses

Molecule: des-Arg^10 kallidin (from UniProt P01042 380-388) (peptide)
- EC50 of des-arg^10-kallidin, contraction of homozygous mouse ileum, Control (n = 2), Experiment #1 [1]: 4000 pM

Molecule: O=C(C[C@@H]1C(=O)NCCN1S(=O)(=O)c1cccc2c1NCCC2)NCCc1ccc(C2=NCCN2)cc1 [Compound #1]
- Ki (hb1): 40 pM
- Ki (rat b1): 591000 pM
- Kb (human B1 receptor; homozygous mouse fundus, Experiment #2 combined with Experiment #1 (n = 4)): 250 pM
- Kb (human B1 receptor; homozygous mouse fundus, line 13, Experiment #1, 30 nM antagonist vs DAK): 270 pM
- Kb (human B1 receptor; homozygous mouse fundus, line 13, Experiment #2, 30 nM antagonist vs DAK): 230 pM
- Kb (human B1 receptor; homozygous mouse ileum, Experiment #2 combined with Experiment #1 (n = 4)): 90 pM
- Kb (human B1 receptor; homozygous mouse ileum, line 13, Experiment #1, 30 nM antagonist vs DAK): 110 pM
- Kb (human B1 receptor; homozygous mouse ileum, line 13, Experiment #2, 30 nM antagonist vs DAK): 210 pM
- sensitivity of the DAK response to the human B1 selective antagonist (B1 receptor): insensitive
